This note sets out measurements from patent US20230117034A1, “PYRAZOLOTRIAZINES” (Bayer Aktiengesellschaft, priority 2019, published 2023).

One assay addresses T1, CDK2/CycE (Homo sapiens, UniProt P24941).
T1 construct: purchased ProQinase GmbH (Freiburg, Germany); host or cells: insect cells (Sf9)
The experiment in a line: CDK2/CycE kinase assay (TR-FRET, 2 mM ATP). It is filed as biochemical. To be noted: 2 mM ATP (high ATP); median; read-out: CDK2/CyclinE, 2 mM ATP (high ATP), IC50 (median). The procedure, abridged: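 GST-tagged human CDK2 and CycE from Sf9 cells, about 10 ng/ml, pre-incubated 15 min at 22 °C with compound in Tris/HCl pH 8.0 buffer. Reaction with 2 mM ATP and 0.75 µM biotinylated peptide for 25 min at 22 °C. Phospho-RB antibody TR-FRET (665/620 nm ratio) read after 1 h; data normalised to no-inhibitor and no-enzyme controls.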
Background: Time-resolved FRET reads energy transfer from a long-lived donor to a nearby acceptor.

The next assay addresses T2, CDK9/CycT1 (Homo sapiens, UniProt P50750).
T2 construct: Recombinant full-length His-tagged human CDK9 and CycT1; purchased Life Technologies PV4131; host or cells: insect cells
The assay can be described thus: CDK9/CycT1 high ATP kinase assay (TR-FRET, 2 mM ATP). The assay is classed as biochemical. To be noted: 2 mM ATP (high ATP); median; read-out: CDK9/CyclinT1, 2 mM ATP (high ATP), IC50 (median). The procedure, abridged: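 Full-length His-tagged human CDK9/CycT1 (insect cell, ~0.5 μg/mL) preincubated 15 min at 22 °C with compound in Tris pH 8.0, MgCl2, DTT buffer before reaction with biotinylated peptide substrate at high ATP (2 mM).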

Assay [1] addresses T3, CDK12 (nuclear staining in CAL-120 cells) (Homo sapiens, UniProt Q9NYV4).
T3 construct: endogenous in cells; host or cells: CAL-120 human breast cancer cells (DSMZ ACC 459)
The experiment in a line: CDK12 nuclear protein level: immunofluorescence/high content analysis (CAL-120). The assay is classed as cell-based. To be noted: for DC50: CAL-120 cells, 24 h, immunofluorescence, 50% reduction of nuclear CDK12 staining intensity, median, read-out: CDK12 degradation IF, DC50- [mol/l] (median); for (IC50 CDK12 high ATP) to (Degradation DC50 CDK12) ratio: ratio of IC50 CDK12 high ATP kinase assay to DC50 CDK12 degradation (IF, CAL-120). An outline of the steps:
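CAL-120 cells were treated with compound for 24 h at 37 °C, fixed with PFA and immunostained for CDK12. Nuclear CDK12 intensity was quantified by automated image analysis and normalized to DMSO and control. DC50 is the concentration giving 50% reduction of nuclear staining.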

pIC50: −log10 of the molar value. A value given as a limit tells only on which side of the number the result lay.

T2 sequence (P50750 whole entry): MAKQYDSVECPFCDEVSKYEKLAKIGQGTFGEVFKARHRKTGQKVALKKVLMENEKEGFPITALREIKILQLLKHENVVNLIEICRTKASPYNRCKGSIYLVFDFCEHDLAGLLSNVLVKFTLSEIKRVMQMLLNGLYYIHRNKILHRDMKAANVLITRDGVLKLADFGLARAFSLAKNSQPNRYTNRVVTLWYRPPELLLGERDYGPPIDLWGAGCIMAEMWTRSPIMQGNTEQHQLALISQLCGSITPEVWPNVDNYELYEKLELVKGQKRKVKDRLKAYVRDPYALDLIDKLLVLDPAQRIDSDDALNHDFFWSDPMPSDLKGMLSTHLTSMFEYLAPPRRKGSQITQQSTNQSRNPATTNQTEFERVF
T2 sequence (O60563 whole entry partner): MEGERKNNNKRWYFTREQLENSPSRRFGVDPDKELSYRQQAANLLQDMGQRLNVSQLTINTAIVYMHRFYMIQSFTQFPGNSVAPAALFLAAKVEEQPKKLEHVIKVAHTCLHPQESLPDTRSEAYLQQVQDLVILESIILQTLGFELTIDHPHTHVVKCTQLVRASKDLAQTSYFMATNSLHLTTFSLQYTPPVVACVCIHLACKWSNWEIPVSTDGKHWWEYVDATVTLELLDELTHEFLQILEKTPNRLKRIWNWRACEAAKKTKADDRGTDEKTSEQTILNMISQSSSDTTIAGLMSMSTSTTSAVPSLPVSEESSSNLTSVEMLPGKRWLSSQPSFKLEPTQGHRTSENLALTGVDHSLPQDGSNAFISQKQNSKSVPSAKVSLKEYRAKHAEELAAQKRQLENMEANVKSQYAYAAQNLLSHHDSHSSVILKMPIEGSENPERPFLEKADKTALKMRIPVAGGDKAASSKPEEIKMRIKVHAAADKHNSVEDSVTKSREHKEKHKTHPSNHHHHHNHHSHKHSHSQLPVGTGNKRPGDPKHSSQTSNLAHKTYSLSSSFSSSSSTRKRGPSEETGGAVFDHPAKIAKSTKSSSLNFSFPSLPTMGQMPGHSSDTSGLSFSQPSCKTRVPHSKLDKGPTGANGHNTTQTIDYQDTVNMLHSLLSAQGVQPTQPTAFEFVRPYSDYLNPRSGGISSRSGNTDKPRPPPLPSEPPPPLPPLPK
T3 sequence (Q9NYV4 whole entry): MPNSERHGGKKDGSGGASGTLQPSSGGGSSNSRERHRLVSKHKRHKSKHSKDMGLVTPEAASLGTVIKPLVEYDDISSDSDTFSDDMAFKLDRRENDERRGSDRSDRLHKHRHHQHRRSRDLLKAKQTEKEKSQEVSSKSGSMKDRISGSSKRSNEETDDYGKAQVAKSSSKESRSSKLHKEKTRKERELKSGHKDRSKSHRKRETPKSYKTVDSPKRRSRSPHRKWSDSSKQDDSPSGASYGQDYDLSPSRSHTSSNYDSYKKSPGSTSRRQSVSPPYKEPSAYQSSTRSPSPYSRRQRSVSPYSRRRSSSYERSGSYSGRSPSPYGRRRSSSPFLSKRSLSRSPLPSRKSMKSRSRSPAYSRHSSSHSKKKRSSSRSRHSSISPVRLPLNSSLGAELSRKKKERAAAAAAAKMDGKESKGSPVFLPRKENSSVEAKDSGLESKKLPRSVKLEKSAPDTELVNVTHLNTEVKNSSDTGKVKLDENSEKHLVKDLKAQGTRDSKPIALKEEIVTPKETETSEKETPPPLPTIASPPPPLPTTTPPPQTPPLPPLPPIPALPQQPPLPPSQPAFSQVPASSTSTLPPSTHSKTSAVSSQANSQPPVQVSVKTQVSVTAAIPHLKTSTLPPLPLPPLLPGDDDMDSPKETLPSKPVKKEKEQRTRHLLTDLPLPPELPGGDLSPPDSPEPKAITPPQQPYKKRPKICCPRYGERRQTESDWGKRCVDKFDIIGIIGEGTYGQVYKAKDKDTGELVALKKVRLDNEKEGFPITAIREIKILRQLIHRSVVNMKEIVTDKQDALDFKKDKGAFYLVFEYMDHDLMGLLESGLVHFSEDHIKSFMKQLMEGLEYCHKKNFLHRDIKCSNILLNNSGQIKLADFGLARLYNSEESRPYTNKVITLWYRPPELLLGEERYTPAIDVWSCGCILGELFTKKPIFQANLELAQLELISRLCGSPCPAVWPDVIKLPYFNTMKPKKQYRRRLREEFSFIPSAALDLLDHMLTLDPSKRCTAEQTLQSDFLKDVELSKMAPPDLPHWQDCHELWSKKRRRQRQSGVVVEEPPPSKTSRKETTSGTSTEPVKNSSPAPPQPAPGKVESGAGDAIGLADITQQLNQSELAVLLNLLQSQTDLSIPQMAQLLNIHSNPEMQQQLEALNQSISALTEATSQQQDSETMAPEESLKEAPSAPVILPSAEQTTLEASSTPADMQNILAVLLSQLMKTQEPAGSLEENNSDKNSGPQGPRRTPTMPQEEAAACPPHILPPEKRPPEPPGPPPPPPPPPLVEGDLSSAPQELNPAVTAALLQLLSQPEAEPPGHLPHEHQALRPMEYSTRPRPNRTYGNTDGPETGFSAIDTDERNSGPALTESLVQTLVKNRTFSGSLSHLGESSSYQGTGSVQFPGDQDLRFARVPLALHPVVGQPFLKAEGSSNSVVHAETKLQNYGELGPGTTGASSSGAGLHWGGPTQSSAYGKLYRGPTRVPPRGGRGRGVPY
T3 sequence (O75909 whole entry partner): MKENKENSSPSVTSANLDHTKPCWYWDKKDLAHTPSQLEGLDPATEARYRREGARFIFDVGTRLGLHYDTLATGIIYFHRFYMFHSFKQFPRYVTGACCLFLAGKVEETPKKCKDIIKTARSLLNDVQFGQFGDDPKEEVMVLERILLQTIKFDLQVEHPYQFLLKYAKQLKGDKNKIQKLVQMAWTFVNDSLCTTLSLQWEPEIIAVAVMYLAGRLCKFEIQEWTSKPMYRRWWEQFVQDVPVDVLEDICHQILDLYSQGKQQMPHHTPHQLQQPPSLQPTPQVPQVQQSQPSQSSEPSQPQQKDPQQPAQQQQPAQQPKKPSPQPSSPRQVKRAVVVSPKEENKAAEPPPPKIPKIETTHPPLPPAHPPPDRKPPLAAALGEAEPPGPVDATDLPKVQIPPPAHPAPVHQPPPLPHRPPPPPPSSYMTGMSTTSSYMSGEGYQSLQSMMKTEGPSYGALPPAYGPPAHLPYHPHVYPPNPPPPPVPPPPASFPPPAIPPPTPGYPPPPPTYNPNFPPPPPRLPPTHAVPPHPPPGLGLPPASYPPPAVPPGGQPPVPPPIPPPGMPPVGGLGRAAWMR

`CN(CC(C)(C)O)c1nc(NCc2nc3c(F)c(F)ccc3[nH]2)n2ncc(C(F)(F)F)c2n1` [Example 402, 1-{[4-{[(4,5-difluoro-1H-benzimidazol-2-yl)methyl]amino}-8-(trifluoromethyl)pyrazolo[1,5-a][1,3,5]triazin-2-yl](methyl)amino}-2-methylpropan-2-ol]: on CDK2/CycE, the pIC50 was 5.02. Besides, the pIC50 at CDK9/CycT1 is 5.27. In assay [1], the DC50 is 7.03 nM and the “(IC50 CDK12 high ATP) to (Degradation DC50 CDK12) ratio” value was determined as 32.

With `CN1CCN(c2nc(NCc3nc4c(F)c(F)ccc4[nH]3)n3ncc(-c4nccs4)c3n2)CC1` [Example 415, N-[(4,5-difluoro-1H-benzimidazol-2-yl)methyl]-2-(4-methylpiperazin-1-yl)-8-(1,3-thiazol-2-yl)pyrazolo[1,5-a][1,3,5]triazin-4-amine], the pIC50 on CDK2/CycE is less than 4.70. On CDK9/CycT1, the pIC50 is less than 4.70. Further, in assay [1], the DC50 is 105 nM and the “(IC50 CDK12 high ATP) to (Degradation DC50 CDK12) ratio” value is given as greater than 191.

As to `COc1cccc2[nH]c(CNc3nc(N4CCOCC4)nc4c(-c5nccs5)cnn34)nc12` [Example 414, N-[(4-methoxy-1H-benzimidazol-2-yl)methyl]-2-(morpholin-4-yl)-8-(1,3-thiazol-2-yl)pyrazolo [1,5-a][1,3,5]triazin-4-amine], at CDK2/CycE, the pIC50 is less than 4.70. Also, the pIC50 at CDK9/CycT1 is less than 4.70. Besides, in assay [1], the DC50 came to 32.5 nM and the “(IC50 CDK12 high ATP) to (Degradation DC50 CDK12) ratio” value is greater than 176.

Regarding `COc1cccc2nc(CNc3nc(N4CCN(C)CC4)nc4c(-c5nccs5)cnn34)[nH]c12` [Example 416, N-[(7-methoxy-1H-benzimidazol-2-yl)methyl]-2-(4-methylpiperazin-1-yl)-8-(1,3-thiazol-2-yl)pyrazolo[1,5-a][1,3,5]triazin-4-amine], the pIC50 on CDK2/CycE and at CDK9/CycT1 was less than 4.70 throughout. Also, the DC50 in assay [1] worked out at 26.1 nM. Further, in assay [1], the “(IC50 CDK12 high ATP) to (Degradation DC50 CDK12) ratio” value is greater than 765.

As for `Brc1cnn2c(NCc3nnc(-c4ccccc4)[nH]3)nc(N3CCCCC3)nc12` [Example 49, 8-bromo-N-[(5-phenyl-4H-1,2,4-triazol-3-yl)methyl]-2-(piperidin-1-yl)pyrazolo[1,5-a][1,3,5]triazin-4-amine], the pIC50 on CDK2/CycE was 5.64. Further, the pIC50 at CDK9/CycT1 is 5.58. In assay [1], the DC50 was 41.7 nM and the “(IC50 CDK12 high ATP) to (Degradation DC50 CDK12) ratio” value stood at 147.

With `C[C@@H]1COCCN1c1nc(NCc2nc3ccccc3[nH]2)n2ncc(Br)c2n1` [Example 56, N-[(1H-benzimidazol-2-yl)methyl]-8-bromo-2-[(3R)-3-methylmorpholin-4-yl]pyrazolo[1,5-a][1,3,5]triazin-4-amine], the pIC50 on CDK2/CycE is 5.69; on CDK9/CycT1 it was less than 4.70. In addition, the DC50 in assay [1] was determined as 15.1 nM. For the same compound, the “(IC50 CDK12 high ATP) to (Degradation DC50 CDK12) ratio” value in assay [1] was 352.

As for `Cc1cnn2c(NCc3nc4ccccc4[nH]3)nc(N(C)CC(C)(C)O)nc12` [Example 397, 1-[(4-{[(1H-benzimidazol-2-yl)methyl]amino}-8-methylpyrazolo[1,5-a][1,3,5]triazin-2-yl)(methyl)amino]-2-methylpropan-2-ol], at CDK2/CycE, the pIC50 is 4.76. The pIC50 on CDK9/CycT1 is less than 4.70. In assay [1], the DC50 is 28.1 nM and the “(IC50 CDK12 high ATP) to (Degradation DC50 CDK12) ratio” value was greater than 623.

Take `Cc1cnn2c(NCc3nc4ccccc4[nH]3)nc(N3CC4CCC(C3)N4)nc12` [Example 401, N-[(1H-benzimidazol-2-yl)methyl]-2-(3,8-diazabicyclo[3.2.1]octan-3-yl)-8-methylpyrazolo[1,5-a][1,3,5]triazin-4-amine]: the pIC50 on CDK2/CycE was less than 4.70. For the same compound, the pIC50 at CDK9/CycT1 was less than 4.70. For the same compound, in assay [1], the DC50 came to 30.8 nM and the “(IC50 CDK12 high ATP) to (Degradation DC50 CDK12) ratio” value was greater than 649.

Regarding `CCNc1nc(NCc2nnc(-c3ccccc3)[nH]2)n2ncc(C(C)C)c2n1` [Example 38, N^2-ethyl-N^4-[(5-phenyl-4H-1,2,4-triazol-3-yl)methyl]-8-(propan-2-yl)pyrazolo[1,5-a][1,3,5]triazine-2,4-diamine], the pIC50 at CDK2/CycE is 5.08. Besides, the pIC50 on CDK9/CycT1 is less than 4.70. Further, in assay [1], the DC50 is 37.2 nM and the “(IC50 CDK12 high ATP) to (Degradation DC50 CDK12) ratio” value is greater than 153.

For the compound `Fc1ccc2[nH]c(CNc3nc(N4CCOCC4)nc4c(CC(F)F)cnn34)nc2c1F.O=C(O)C(F)(F)F` [Example 425, trifluoroacetic acid N-[(4,5-difluoro-1H-benzimidazol-2-yl)methyl]-8-(2,2-difluoroethyl)-2-(morpholin-4-yl)pyrazolo[1,5-a][1,3,5]triazin-4-amine], on CDK2/CycE, the pIC50 was less than 4.70. In addition, at CDK9/CycT1, the pIC50 is less than 4.70. Moreover, in assay [1], the DC50 turned out to be 2.51 nM and the “(IC50 CDK12 high ATP) to (Degradation DC50 CDK12) ratio” value was 852.

Consider `CC(C)c1cnn2c(NCc3nnc(-c4ccccc4)[nH]3)nc(N3CCN(C)CC3)nc12` [Example 37, 2-(4-methylpiperazin-1-yl)-N-[(5-phenyl-4H-1,2,4-triazol-3-yl)methyl]-8-(propan-2-yl)pyrazolo[1,5-a][1,3,5]triazin-4-amine], for which the values for the pIC50 at CDK2/CycE and at CDK9/CycT1 were less than 4.82 and less than 4.70, respectively. In assay [1], the DC50 was 42.8 nM. Further, the “(IC50 CDK12 high ATP) to (Degradation DC50 CDK12) ratio” value in assay [1] is listed as greater than 467.

Regarding `FC(F)(F)c1cccc(-c2nnc(CNc3nc(N4CCOCC4)nc4c(Br)cnn34)[nH]2)c1` [Example 52, 8-bromo-2-(morpholin-4-yl)-N-({5-[3-(trifluoromethyl)phenyl]-4H-1,2,4-triazol-3-yl}methyl)pyrazolo[1,5-a][1,3,5]triazin-4-amine], the pIC50 on CDK2/CycE is 5.58. Also, the pIC50 on CDK9/CycT1 was 5.74. Also, in assay [1], the DC50 was found to be 20.5 nM and the “(IC50 CDK12 high ATP) to (Degradation DC50 CDK12) ratio” value was determined as 80.

For the compound `CN1CCN(c2nc(NCc3nc4cc(Cl)c(Cl)cc4[nH]3)n3ncc(-c4cnn(C)c4)c3n2)CC1` [Example 420, N-[(5,6-dichloro-1H-benzimidazol-2-yl)methyl]-2-(4-methylpiperazin-1-yl)-8-(1-methyl-1H-pyrazol-4-yl)pyrazolo[1,5-a][1,3,5]triazin-4-amine], on CDK2/CycE, the pIC50 was less than 4.70. Moreover, the pIC50 on CDK9/CycT1 was less than 4.70. Moreover, in assay [1], the DC50 turned out to be 80.6 nM and the “(IC50 CDK12 high ATP) to (Degradation DC50 CDK12) ratio” value is recorded as greater than 248.

Take `Cc1cccc(-c2nnc(CNc3nc(N4CCOCC4)nc4c(Br)cnn34)[nH]2)c1` [Example 40, 8-bromo-N-{[5-(3-methylphenyl)-4H-1,2,4-triazol-3-yl]methyl}-2-(morpholin-4-yl)pyrazolo[1,5-a][1,3,5]triazin-4-amine]: on CDK2/CycE, the pIC50 was 5.68. Besides, the pIC50 at CDK9/CycT1 is 5.55. In assay [1], the DC50 worked out at 4.58 nM and the “(IC50 CDK12 high ATP) to (Degradation DC50 CDK12) ratio” value stood at 532.

On to `CC(C)c1cnn2c(NCc3ncc(-c4ccccc4)[nH]3)nc(N(C)CC(C)(C)O)nc12` [Example 35, 2-methyl-1-{methyl[4-{[(5-phenyl-1H-imidazol-2-yl)methyl]amino}-8-(propan-2-yl)pyrazolo[1,5-a][1,3,5]triazin-2-yl]amino}propan-2-ol], for which the pIC50 at CDK2/CycE is 5.77; at CDK9/CycT1, 5.04. Besides, in assay [1], the DC50 is 27.3 nM. Further, the “(IC50 CDK12 high ATP) to (Degradation DC50 CDK12) ratio” value in assay [1] was 81.
